Data as given in ChEMBL document CHEMBL5113478, “7-Azaindole, 2,7-diazaindole, and 1H-pyrazole as core structures for novel anticancer agents with potential chemosensitizing properties” (Eur J Med Chem, 2022).
Activity calls are given as the source filed them. No cut-off for these calls is given here.

Tests used:
[1] = molecular target: High affinity nerve growth factor receptor (Homo sapiens) (UniProt P04629); experiment: Inhibition of human TrkA assessed as residual activity at 10 uM relative to control
High affinity nerve growth factor receptor (Homo sapiens), sequence (P04629 33-796 limits assumed): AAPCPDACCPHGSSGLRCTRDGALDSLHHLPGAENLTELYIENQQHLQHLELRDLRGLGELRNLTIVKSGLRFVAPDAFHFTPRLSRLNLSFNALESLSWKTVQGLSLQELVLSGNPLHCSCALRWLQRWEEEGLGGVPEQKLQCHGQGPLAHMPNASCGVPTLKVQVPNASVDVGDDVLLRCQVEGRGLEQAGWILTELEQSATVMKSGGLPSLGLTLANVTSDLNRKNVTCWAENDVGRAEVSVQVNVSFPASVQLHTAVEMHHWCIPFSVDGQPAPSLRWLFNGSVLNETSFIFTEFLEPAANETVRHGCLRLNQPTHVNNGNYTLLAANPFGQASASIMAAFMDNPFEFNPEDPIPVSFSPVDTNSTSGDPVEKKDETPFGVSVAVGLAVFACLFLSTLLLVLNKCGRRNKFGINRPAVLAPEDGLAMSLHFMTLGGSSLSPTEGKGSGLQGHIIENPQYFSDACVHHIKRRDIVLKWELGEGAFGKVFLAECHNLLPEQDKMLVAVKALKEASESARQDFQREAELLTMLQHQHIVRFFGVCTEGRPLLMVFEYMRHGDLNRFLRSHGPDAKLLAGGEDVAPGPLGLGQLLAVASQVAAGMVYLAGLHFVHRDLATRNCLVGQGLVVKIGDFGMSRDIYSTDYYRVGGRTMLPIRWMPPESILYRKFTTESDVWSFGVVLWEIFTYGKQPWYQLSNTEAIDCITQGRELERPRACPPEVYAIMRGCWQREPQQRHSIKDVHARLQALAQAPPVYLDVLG

[2] = test system: A2780; experiment: Antiproliferative activity against human A2780 cells assessed as […] cell proliferation at 10 uM incubated for 48 hrs in presence of 2 uM of CDDP by WST-1 assay relative to control; assay type: functional
[3] = test system: MCF7; experiment: Antiproliferative activity against human MCF7 cells assessed as […] cell proliferation at 10 uM incubated for 48 hrs in presence of 10 uM of CDDP by WST-1 assay relative to control; assay type: functional
[4] = test system: HeLa; experiment: Antiproliferative activity against human HeLa cells assessed as […] cell proliferation at 10 uM incubated for 48 hrs by WST-1 assay relative to control; assay type: functional
[5] = test system: HT-29; experiment: Antiproliferative activity against human HT-29 cells assessed as […] cell proliferation at 10 uM incubated for 48 hrs in presence of 15 uM of CDDP by WST-1 assay relative to control; assay type: functional
[6] = molecular target: T1, Aurora kinase A (Homo sapiens) (UniProt O14965); experiment: Inhibition of human Aurora-A assessed as residual activity at 10 uM relative to control
T1 sequence (whole entry): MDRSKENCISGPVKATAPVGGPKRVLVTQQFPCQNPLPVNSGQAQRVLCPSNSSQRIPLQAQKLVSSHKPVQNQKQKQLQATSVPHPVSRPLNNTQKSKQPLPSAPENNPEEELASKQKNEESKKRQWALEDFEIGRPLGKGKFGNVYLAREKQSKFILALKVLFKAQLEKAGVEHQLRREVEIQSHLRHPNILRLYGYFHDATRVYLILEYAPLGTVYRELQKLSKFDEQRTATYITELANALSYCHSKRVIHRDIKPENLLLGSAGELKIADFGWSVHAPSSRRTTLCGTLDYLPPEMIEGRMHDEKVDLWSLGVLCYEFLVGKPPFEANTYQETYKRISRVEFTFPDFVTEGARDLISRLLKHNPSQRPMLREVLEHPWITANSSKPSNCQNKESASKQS

[7] = test system: PANC-1; experiment: Antiproliferative activity against human PANC-1 cells assessed as […] cell proliferation at 10 uM incubated for 48 hrs by WST-1 assay relative to control; assay type: functional
[8] = molecular target: Vascular endothelial growth factor receptor 2 (Homo sapiens) (UniProt P35968); experiment: Inhibition of human KDR assessed as residual activity at 10 uM relative to control
[9] = test system: HeLa; experiment: Antiproliferative activity against human HeLa cells assessed as […] cell proliferation at 10 uM incubated for 48 hrs in presence of 15 uM of CDDP by WST-1 assay relative to control; assay type: functional
[10] = test system: PANC-1; experiment: Antiproliferative activity against human PANC-1 cells assessed as […] cell proliferation at 10 uM incubated for 48 hrs in presence of 15 uM of CDDP by WST-1 assay relative to control; assay type: functional
[11] = molecular target: Protein kinase C alpha type (Homo sapiens) (UniProt P17252); experiment: Inhibition of human PKCalpha assessed as residual activity at 10 uM relative to control
[12] = test system: SAOS-2; experiment: Antiproliferative activity against human SAOS-2 cells assessed as […] cell proliferation at 10 uM incubated for 48 hrs in presence of 15 uM of CDDP by WST-1 assay relative to control; assay type: functional
[13] = test system: 1321N1; experiment: Cytotoxicity against human 1321N1 cells assessed as reduction in cell viability at 15 uM incubated for 48 hrs by MTT assay; assay type: functional, cell-based
[14] = molecular target: Proto-oncogene tyrosine-protein kinase receptor Ret (Homo sapiens) (UniProt P07949); experiment: Inhibition of human Ret assessed as residual activity at 10 uM relative to control
Proto-oncogene tyrosine-protein kinase receptor Ret (Homo sapiens), sequence (P07949 whole entry): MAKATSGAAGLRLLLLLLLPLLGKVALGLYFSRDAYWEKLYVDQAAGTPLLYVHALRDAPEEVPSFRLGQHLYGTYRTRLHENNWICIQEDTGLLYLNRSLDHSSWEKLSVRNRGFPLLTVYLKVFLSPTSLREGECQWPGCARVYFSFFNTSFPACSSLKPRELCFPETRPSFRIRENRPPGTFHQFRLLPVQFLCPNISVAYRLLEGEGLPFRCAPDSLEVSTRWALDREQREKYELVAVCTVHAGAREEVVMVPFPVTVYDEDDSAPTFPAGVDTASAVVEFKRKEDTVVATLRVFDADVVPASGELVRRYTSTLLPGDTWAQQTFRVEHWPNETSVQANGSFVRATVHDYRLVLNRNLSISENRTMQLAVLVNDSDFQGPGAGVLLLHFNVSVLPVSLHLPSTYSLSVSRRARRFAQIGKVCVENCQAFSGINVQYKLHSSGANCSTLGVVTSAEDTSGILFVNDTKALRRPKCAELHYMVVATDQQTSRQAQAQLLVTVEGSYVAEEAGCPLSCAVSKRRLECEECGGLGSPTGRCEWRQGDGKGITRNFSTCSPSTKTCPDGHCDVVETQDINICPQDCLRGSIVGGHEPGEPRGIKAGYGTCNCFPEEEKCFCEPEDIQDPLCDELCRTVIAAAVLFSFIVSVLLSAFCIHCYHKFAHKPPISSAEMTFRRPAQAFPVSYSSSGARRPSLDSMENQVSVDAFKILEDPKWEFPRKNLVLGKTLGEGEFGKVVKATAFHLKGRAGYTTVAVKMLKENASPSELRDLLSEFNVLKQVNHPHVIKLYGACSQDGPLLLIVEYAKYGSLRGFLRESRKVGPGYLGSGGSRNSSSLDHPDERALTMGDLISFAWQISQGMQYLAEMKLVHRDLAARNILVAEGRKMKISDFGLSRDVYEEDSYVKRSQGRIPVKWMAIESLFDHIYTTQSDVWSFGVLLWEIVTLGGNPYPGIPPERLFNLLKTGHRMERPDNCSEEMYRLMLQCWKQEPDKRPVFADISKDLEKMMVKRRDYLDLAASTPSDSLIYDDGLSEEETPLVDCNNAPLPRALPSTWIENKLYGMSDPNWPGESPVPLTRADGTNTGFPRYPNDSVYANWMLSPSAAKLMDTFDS

[15] = test system: A549; experiment: Antiproliferative activity against human A549 cells assessed as […] cell proliferation at 10 uM incubated for 48 hrs in presence of 15 uM of CDDP by WST-1 assay relative to control; assay type: functional
[16] = test system: GBM; experiment: Cytotoxicity against patient-derived human GBM cells assessed as reduction in cell viability at 15 uM incubated for 48 hrs by MTT assay; assay type: functional
[17] = test system: SAOS-2; experiment: Antiproliferative activity against human SAOS-2 cells assessed as […] cell proliferation at 10 uM incubated for 48 hrs by WST-1 assay relative to control; assay type: functional
[18] = test system: Jurkat; experiment: Antiproliferative activity against human Jurkat cells assessed as […] cell proliferation at 10 uM incubated for 48 hrs by WST-1 assay relative to control; assay type: functional
[19] = test system: A2780; experiment: Antiproliferative activity against human A2780 cells assessed as […] cell proliferation at 10 uM incubated for 48 hrs by WST-1 assay relative to control; assay type: functional
[20] = molecular target: ATR/ATRIP (Homo sapiens) (UniProt Q13535+Q8WXE1); experiment: Inhibition of human ATR/ATRIP assessed as residual activity at 10 uM relative to control; assay type: protein-complex assay
[21] = molecular target: Vascular endothelial growth factor receptor 1 (Homo sapiens) (UniProt P17948); experiment: Inhibition of human FLT1 assessed as residual activity at 10 uM relative to control
Vascular endothelial growth factor receptor 1 (Homo sapiens), sequence (P17948 whole entry): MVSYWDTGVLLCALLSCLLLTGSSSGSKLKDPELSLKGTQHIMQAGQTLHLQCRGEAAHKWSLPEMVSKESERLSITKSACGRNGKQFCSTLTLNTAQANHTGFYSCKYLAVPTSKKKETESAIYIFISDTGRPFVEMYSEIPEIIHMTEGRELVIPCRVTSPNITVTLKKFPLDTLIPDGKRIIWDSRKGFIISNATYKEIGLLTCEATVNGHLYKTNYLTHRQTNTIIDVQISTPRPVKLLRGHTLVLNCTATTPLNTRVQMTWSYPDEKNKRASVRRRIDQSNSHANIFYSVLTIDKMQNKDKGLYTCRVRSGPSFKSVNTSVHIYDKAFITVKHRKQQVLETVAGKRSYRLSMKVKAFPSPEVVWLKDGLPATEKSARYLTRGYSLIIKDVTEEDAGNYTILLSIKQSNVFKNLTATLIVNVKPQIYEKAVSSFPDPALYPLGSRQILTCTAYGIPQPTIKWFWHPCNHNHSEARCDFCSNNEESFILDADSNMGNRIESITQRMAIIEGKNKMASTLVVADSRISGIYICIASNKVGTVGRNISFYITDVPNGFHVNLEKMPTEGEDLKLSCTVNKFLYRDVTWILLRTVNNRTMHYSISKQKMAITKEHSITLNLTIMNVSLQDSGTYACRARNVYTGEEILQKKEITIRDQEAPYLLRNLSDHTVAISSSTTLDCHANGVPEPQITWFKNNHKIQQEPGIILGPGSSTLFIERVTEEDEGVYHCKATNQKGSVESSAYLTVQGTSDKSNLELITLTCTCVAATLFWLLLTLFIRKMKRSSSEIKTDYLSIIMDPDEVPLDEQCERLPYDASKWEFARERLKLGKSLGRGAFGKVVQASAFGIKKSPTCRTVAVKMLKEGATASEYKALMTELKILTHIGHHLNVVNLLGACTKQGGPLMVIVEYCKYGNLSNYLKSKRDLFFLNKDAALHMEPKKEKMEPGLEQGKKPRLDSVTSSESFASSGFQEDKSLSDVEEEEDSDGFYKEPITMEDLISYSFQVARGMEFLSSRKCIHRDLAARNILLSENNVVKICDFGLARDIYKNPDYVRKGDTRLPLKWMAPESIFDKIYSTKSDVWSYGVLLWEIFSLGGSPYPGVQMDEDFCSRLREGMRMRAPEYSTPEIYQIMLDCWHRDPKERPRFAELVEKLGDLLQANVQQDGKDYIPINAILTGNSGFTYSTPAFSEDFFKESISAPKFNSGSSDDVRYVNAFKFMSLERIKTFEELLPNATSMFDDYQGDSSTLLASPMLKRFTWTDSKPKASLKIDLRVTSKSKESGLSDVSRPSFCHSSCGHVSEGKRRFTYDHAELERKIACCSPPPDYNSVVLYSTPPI

[22] = molecular target: T2, Cytoplasmic tyrosine-protein kinase BMX (Homo sapiens) (UniProt P51813); experiment: Inhibition of human Bmx assessed as residual activity at 10 uM relative to control
T2 sequence (whole entry): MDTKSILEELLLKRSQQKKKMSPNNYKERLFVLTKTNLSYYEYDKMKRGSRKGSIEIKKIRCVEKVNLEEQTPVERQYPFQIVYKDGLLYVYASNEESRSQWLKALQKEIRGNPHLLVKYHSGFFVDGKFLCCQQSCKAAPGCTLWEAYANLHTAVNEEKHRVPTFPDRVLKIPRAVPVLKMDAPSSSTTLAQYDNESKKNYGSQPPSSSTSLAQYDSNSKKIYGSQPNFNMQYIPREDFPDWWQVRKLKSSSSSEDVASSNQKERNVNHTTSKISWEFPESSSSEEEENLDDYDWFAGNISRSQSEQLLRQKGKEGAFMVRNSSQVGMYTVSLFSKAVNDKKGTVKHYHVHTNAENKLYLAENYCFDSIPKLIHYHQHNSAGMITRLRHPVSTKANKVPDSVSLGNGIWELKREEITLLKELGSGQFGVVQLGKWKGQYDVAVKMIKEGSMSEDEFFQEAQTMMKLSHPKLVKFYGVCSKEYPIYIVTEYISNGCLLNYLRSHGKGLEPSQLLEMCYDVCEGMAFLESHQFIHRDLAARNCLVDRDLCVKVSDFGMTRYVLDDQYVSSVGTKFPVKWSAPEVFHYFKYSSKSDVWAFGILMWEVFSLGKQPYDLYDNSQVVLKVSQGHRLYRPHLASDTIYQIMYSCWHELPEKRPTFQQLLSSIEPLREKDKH

[23] = test system: MOLT-4; experiment: Antiproliferative activity against human MOLT-4 cells assessed as […] cell proliferation at 10 uM incubated for 48 hrs in presence of 2 uM of CDDP by WST-1 assay relative to control; assay type: functional
[24] = test system: 1321N1; experiment: Chemo-sensitizing activity against human 1321N1 cells at 15 uM incubated for 48 hrs in presence of TMZ by MTT assay; assay type: functional, cell-based
[25] = molecular target: Fibroblast growth factor receptor 3 (Homo sapiens) (UniProt P22607); experiment: Inhibition of human FGFR3 assessed as residual activity at 10 uM relative to control
[26] = molecular target: Fibroblast growth factor receptor 2 (Homo sapiens) (UniProt P21802); experiment: Inhibition of human FGFR2 assessed as residual activity at 10 uM relative to control
Fibroblast growth factor receptor 2 (Homo sapiens), sequence (P21802 22-821 limits assumed): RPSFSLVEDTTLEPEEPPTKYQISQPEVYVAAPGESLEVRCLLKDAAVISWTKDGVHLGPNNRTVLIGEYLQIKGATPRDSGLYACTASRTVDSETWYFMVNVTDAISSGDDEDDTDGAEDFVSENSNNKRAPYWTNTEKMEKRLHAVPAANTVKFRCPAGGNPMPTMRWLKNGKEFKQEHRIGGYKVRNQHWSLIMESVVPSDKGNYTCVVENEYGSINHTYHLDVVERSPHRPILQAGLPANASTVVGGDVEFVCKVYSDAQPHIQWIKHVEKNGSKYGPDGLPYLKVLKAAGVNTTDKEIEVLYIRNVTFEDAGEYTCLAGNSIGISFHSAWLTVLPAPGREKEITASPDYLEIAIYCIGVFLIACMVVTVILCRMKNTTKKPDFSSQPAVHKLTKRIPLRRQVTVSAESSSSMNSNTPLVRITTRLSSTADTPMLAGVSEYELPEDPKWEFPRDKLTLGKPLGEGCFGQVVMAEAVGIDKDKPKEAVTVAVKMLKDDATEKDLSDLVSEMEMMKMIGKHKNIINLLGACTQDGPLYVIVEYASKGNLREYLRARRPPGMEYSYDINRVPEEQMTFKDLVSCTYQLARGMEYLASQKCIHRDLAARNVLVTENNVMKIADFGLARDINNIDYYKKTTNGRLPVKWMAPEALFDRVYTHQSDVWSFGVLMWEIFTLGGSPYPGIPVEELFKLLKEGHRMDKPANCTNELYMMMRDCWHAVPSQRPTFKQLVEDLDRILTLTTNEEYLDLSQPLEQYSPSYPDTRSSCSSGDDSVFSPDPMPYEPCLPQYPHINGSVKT

[27] = test system: HT-29; experiment: Antiproliferative activity against human HT-29 cells assessed as […] cell proliferation at 10 uM incubated for 48 hrs by WST-1 assay relative to control; assay type: functional
[28] = test system: Mast/stem cell growth factor receptor Kit (Homo sapiens), P10721 [V560G]; experiment: Inhibition of human cKit V560G mutant assessed as residual activity at 10 uM relative to control
Mast/stem cell growth factor receptor Kit (Homo sapiens), P10721 [V560G], sequence (P10721 whole entry V560G): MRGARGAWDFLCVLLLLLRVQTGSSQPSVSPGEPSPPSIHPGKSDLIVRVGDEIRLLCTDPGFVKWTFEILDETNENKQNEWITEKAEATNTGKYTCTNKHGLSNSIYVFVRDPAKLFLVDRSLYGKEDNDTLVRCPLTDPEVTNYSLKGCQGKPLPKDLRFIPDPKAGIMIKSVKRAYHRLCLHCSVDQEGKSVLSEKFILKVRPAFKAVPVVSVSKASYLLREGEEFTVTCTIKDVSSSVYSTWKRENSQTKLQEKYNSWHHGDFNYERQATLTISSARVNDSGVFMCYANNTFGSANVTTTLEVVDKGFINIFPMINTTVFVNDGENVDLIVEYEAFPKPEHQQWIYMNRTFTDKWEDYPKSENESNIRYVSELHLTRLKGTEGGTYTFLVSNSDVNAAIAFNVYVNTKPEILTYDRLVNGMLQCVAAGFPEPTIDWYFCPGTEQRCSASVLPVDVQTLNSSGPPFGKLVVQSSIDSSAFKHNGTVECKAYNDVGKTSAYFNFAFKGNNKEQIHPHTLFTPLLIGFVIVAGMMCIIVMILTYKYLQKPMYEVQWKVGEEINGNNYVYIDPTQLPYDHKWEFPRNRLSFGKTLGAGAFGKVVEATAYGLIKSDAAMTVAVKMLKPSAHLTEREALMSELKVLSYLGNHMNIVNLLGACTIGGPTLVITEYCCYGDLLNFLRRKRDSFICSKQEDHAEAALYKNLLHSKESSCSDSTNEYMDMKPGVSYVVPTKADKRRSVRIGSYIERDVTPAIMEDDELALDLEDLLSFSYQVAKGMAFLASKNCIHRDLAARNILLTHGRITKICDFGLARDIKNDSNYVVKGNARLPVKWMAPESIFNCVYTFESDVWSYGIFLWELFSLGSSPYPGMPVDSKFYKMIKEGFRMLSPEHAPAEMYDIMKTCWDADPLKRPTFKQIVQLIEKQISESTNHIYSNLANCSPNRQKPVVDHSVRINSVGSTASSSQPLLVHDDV

[29] = test system: MOLT-4; experiment: Antiproliferative activity against human MOLT-4 cells assessed as […] cell proliferation at 10 uM incubated for 48 hrs by WST-1 assay relative to control; assay type: functional
[30] = test system: Jurkat; experiment: Antiproliferative activity against human Jurkat cells assessed as […] cell proliferation at 10 uM incubated for 48 hrs in presence of 2 uM of CDDP by WST-1 assay relative to control; assay type: functional
[31] = test system: A549; experiment: Antiproliferative activity against human A549 cells assessed as […] cell proliferation at 10 uM incubated for 48 hrs by WST-1 assay relative to control; assay type: functional
[32] = test system: MCF7; experiment: Antiproliferative activity against human MCF7 cells assessed as […] cell proliferation at 10 uM incubated for 48 hrs by WST-1 assay relative to control; assay type: functional
[33] = molecular target: Angiopoietin-1 receptor (Homo sapiens) (UniProt Q02763); experiment: Inhibition of human Tie2 assessed as residual activity at 10 uM relative to control
[34] = molecular target: Vascular endothelial growth factor receptor 3 (Homo sapiens) (UniProt P35916); experiment: Inhibition of human FLT4 assessed as residual activity at 10 uM relative to control
[35] = molecular target: Serine/threonine-protein kinase ATR (Homo sapiens, UniProt Q13535); experiment: Binding affinity to ATR (unknown origin) assessed as inhibition constant

With CC(C)S(=O)(=O)c1ccc(-c2cnc3[nH]nc(C(=O)N4CCC(c5ccccc5)CC4)c3c2)cc1 the Activity [1] was 108%, the Activity [2] was 49% and the Activity [3] was 49%. It also gave an Activity [4] of 79%, an Activity [5] of 49% and an Activity [6] of 80%. The Activity [7] was 79%, the Activity [8] was 73% and the Activity [9] was 49%. For the same compound, the Activity [10] was 49%, the Activity [11] was 59% and the Activity [12] was 49%. The Activity [13] was “Active”, the Activity [14] was 77% and the Activity [15] was 49%. The Activity [16] was 50%, the Activity [17] was 79% and the Activity [18] was 79%. For the same compound, the Activity [19] was 79%, the Activity [20] was 59% and the Activity [21] was 61%. The Activity [22] was 98%, the Activity [23] was 49% and the Activity [24] was “Active”. For the same compound, the Activity [25] was 90%, the Activity [26] was 105% and the “Cell viability relative to control” value [27] was 79%. For the same compound, the Activity [28] was 89%, the Activity [29] was 79% and the Activity [30] was 49%. For the same compound, the Activity [31] was 79%, the Activity [32] was 79% and the Activity [33] was 70%. The Activity [34] was 39%.
For CCN1CCN(C2CCN(Cc3c[nH]c4ncc(-c5ccc(S(=O)(=O)C(C)C)cc5)cc34)CC2)CC1, the Activity [1] was 82%, the Activity [2] was 46% and the Activity [3] was 46%. For the same compound, the Activity [4] was 87%, the Activity [5] was 46% and the Activity [6] was 86%. It also gave an Activity [7] of 87%, an Activity [8] of 91% and an Activity [9] of 46%. The Activity [10] was 46%, the Activity [11] was 88% and the Activity [12] was 46%. The Activity [13] was “Active”, the Activity [14] was 129% and the Activity [15] was 46%. For the same compound, the Activity [16] was “Active”, the Activity [17] was 87% and the Activity [18] was 87%. For the same compound, the Activity [19] was 87%, the Activity [20] was 96% and the Activity [21] was 81%. The Activity [22] was 97%, the Activity [23] was 46% and the Activity [24] was “Active”. The Activity [25] was 92%, the Activity [26] was 108% and the “Cell viability relative to control” value [27] was 87%. For the same compound, the Activity [28] was 83%, the Activity [29] was 87% and the Activity [30] was 46%. For the same compound, the Activity [31] was 87%, the Activity [32] was 87% and the Activity [33] was 84%. The Activity [34] was 80%.
CC(C)S(=O)(=O)c1ccc(-c2cnc3[nH]cc(C(=O)N4CCC(c5ccccc5)CC4)c3c2)cc1 was tested, and the Activity [1] was 42%, the Activity [2] was 28% and the Activity [3] was 28%. For the same compound, the Activity [4] was 30%, the Activity [5] was 28% and the Activity [6] was 45%. The Activity [7] was 30%, the Activity [8] was 52% and the Activity [9] was 28%. For the same compound, the Activity [10] was 28%, the Activity [11] was 90% and the Activity [12] was 28%. For the same compound, the Activity [13] was “Active”, the Activity [14] was 16% and the Activity [15] was 28%. For the same compound, the Activity [16] was “Active”, the Activity [17] was 30% and the Activity [18] was 30%. It also gave an Activity [19] of 30%, an Activity [20] of 91% and an Activity [21] of 49%. The Activity [22] was 56%, the Activity [23] was 28% and the Activity [25] was 60%. For the same compound, the Activity [26] was 57%, the “Cell viability relative to control” value [27] was 30% and the Activity [28] was 30%. For the same compound, the Activity [29] was 30%, the Activity [30] was 28% and the Activity [31] was 30%. It also gave an Activity [32] of 30%, an Activity [33] of 57% and an Activity [34] of 10%.
Compound Nc1nn2cc(F)cnc2c1C(=O)Nc1cncc(F)c1N1CCC(C(=O)N2CCN(C3COC3)CC2)CC1 [M4344] has a Ki [35] of under 0.2 nM.
